Starred links: 1 amine or outer side, 2 acyl side, 3 side chain; linkers in the order of their positions; H or OH if unused. Non-standard residues stand in square brackets, D forms with d. Residues, ends and D or L forms follow the SMILES beside them. Groups on a side chain read outwards from the residue. *: point of attachment. C18 diacid = O=C(O)CCCCCCCCCCCCCCCCC(=O)*; γGlu = O=C(O)[C@H](CCC(=O)[*:2])N[*:1]; εLys = N[C@@H](CCCCN[*:1])C(=O)[*:2]; AEEA = NCCOCCOCC(=O)O; Aib = CC(C)(N)C(=O)O
Assays:
mouse GLP-1 receptor = molecular target: T1, mouse GLP-1 receptor (Mus musculus, UniProt O35659)
T1 sequence (O35659 22-463): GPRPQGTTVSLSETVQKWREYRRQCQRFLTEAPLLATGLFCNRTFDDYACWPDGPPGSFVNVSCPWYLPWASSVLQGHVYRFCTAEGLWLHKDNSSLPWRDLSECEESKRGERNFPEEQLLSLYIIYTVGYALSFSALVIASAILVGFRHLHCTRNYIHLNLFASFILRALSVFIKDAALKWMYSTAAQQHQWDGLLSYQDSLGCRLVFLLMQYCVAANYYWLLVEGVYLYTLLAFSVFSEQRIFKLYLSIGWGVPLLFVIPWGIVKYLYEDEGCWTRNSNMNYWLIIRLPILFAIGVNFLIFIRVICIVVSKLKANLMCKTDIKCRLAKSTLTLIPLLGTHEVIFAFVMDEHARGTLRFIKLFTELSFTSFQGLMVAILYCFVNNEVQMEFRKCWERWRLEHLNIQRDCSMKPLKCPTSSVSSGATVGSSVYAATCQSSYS

mouse GIP receptor = molecular target: T2, mouse GIP receptor (Mus musculus, UniProt Q0P543); test: cell-based
T2 sequence (Q0P543 19-460): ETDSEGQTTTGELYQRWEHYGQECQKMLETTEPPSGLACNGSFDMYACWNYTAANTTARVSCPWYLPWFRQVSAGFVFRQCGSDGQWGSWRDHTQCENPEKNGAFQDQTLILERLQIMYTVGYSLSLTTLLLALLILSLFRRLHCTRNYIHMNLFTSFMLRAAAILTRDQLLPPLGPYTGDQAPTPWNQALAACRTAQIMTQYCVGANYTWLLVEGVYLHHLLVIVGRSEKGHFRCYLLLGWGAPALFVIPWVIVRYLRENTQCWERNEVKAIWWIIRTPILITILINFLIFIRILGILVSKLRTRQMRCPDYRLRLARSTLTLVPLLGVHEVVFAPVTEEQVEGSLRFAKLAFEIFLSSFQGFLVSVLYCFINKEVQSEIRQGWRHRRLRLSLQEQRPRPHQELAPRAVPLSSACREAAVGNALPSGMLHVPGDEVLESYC

human GLP-1 receptor = human GLP-1 receptor (Homo sapiens, UniProt P43220); test: cell-based; settings: hGLP-1R
human GLP-1 receptor, sequence (P43220 24-463): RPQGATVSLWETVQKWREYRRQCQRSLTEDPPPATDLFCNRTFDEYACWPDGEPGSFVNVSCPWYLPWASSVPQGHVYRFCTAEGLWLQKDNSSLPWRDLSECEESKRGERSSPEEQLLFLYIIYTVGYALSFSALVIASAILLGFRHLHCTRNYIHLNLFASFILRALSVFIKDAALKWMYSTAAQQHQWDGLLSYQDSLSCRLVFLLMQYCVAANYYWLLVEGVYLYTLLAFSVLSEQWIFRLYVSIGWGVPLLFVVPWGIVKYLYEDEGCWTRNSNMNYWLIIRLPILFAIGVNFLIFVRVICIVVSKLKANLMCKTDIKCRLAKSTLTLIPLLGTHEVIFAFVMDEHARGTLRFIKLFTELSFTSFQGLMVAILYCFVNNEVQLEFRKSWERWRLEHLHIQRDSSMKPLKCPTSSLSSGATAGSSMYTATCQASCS

| SMILES | EC50 (mouse GLP-1 receptor) | EC50 (mouse GIP receptor) | EC50 (human GLP-1 receptor; CRE Luc 0% HSA EC50, 0% HSA) | EC50 (human GLP-1 receptor; CRE Luc 1% HSA EC50, 1% HSA) |
| --- | --- | --- | --- | --- |
| CC[C@H](C)[C@H](NC(=O)[C@H](CO)NC(=O)[C@H](Cc1ccc(O)cc1)NC(=O)[C@H](CC(=O)O)NC(=O)[C@H](CO)NC(=O)[C@@H](NC(=O)[C@H](Cc1ccccc1)NC(=O)[C@@H](NC(=O)CNC(=O)[C@H](CCC(=O)O)NC(=O)C(C)(C)NC(=O)[C@@H](N)Cc1ccc(O)cc1)[C@@H](C)O)[C@@H](C)O)C(=O)N[C@@H](Cc1ccc(O)cc1)C(=O)N[C@@H](CC(C)C)C(=O)N[C@@H](CC(=O)O)C(=O)N[C@@H](CCCCN)C(=O)N[C@@H](CCCCNC(=O)COCCOCCNC(=O)COCCOCCNC(=O)CC[C@H](NC(=O)CCCCCCCCCCCCCCCCC(=O)O)C(=O)O)C(=O)N[C@@H](C)C(=O)N[C@@H](C)C(=O)NC(C)(C)C(=O)N[C@@H](CCC(=O)O)C(=O)N[C@@H](Cc1ccccc1)C(=O)N[C@H](C(=O)N[C@@H](CC(N)=O)C(=O)N[C@@H](Cc1c[nH]c2ccccc12)C(=O)N[C@@H](CC(C)C)C(=O)N[C@@H](CC(C)C)C(=O)N[C@@H](C)C(=O)NCC(=O)NCC(=O)N1CCC[C@H]1C(=O)N[C@@H](CO)C(=O)N[C@@H](CO)C(=O)NCC(=O)N[C@@H](C)C(=O)N1CCC[C@H]1C(=O)N1CCC[C@H]1C(=O)N1CCC[C@H]1C(=O)N[C@@H](CO)C(N)=O)C(C)C [Compound 4] (H-Y[Aib]EGTFTSDYSIYLDKK([AEEA-AEEA-γGlu-C18 diacid])AA[Aib]EFVNWLLAGGPSSGAPPPS-NH2; N-terminus assumed) | 0.0039 nM | 1.55 nM | 0.0106 nM | 0.232 nM |
| CC[C@H](C)[C@H](NC(=O)[C@H](CO)NC(=O)[C@H](Cc1ccc(O)cc1)NC(=O)[C@H](CC(=O)O)NC(=O)[C@H](CO)NC(=O)[C@@H](NC(=O)[C@H](Cc1ccccc1)NC(=O)[C@@H](NC(=O)CNC(=O)[C@H](CCC(=O)O)NC(=O)C(C)(C)NC(=O)[C@@H](N)Cc1ccc(O)cc1)[C@@H](C)O)[C@@H](C)O)C(=O)N[C@@H](Cc1ccc(O)cc1)C(=O)N[C@@H](CC(C)C)C(=O)N[C@@H](CC(=O)O)C(=O)N[C@@H](CCCCN)C(=O)N[C@@H](CCC(N)=O)C(=O)N[C@@H](C)C(=O)N[C@@H](C)C(=O)NC(C)(C)C(=O)N[C@@H](CCCCNC(=O)COCCOCCNC(=O)COCCOCCNC(=O)CC[C@H](NC(=O)CCCCCCCCCCCCCCCCC(=O)O)C(=O)O)C(=O)N[C@@H](Cc1ccccc1)C(=O)N[C@H](C(=O)N[C@@H](CC(N)=O)C(=O)N[C@@H](Cc1c[nH]c2ccccc12)C(=O)N[C@@H](CC(C)C)C(=O)N[C@@H](CC(C)C)C(=O)N[C@@H](C)C(=O)NCC(=O)NCC(=O)N1CCC[C@H]1C(=O)N[C@@H](CO)C(=O)N[C@@H](CO)C(=O)NCC(=O)N[C@@H](C)C(=O)N1CCC[C@H]1C(=O)N1CCC[C@H]1C(=O)N1CCC[C@H]1C(=O)N[C@@H](CO)C(N)=O)C(C)C [Compound 5] (H-Y[Aib]EGTFTSDYSIYLDKQAA[Aib]K([AEEA-AEEA-γGlu-C18 diacid])FVNWLLAGGPSSGAPPPS-NH2; N-terminus assumed) | 0.0025 nM | 0.523 nM | 0.0092 nM | 0.161 nM |
| CC[C@H](C)[C@H](NC(=O)[C@H](CO)NC(=O)[C@H](Cc1ccc(O)cc1)NC(=O)[C@H](CC(=O)O)NC(=O)[C@H](CO)NC(=O)[C@@H](NC(=O)[C@H](Cc1ccccc1)NC(=O)[C@@H](NC(=O)CNC(=O)[C@H](CCC(=O)O)NC(=O)C(C)(C)NC(=O)[C@@H](N)Cc1ccc(O)cc1)[C@@H](C)O)[C@@H](C)O)C(=O)N[C@@H](Cc1ccc(O)cc1)C(=O)N[C@@H](CC(C)C)C(=O)N[C@@H](CC(=O)O)C(=O)N[C@@H](CCCCN)C(=O)N[C@@H](CCC(N)=O)C(=O)N[C@@H](C)C(=O)N[C@@H](C)C(=O)NC(C)(C)C(=O)N[C@@H](CCC(=O)O)C(=O)N[C@@H](Cc1ccccc1)C(=O)N[C@H](C(=O)N[C@@H](CC(N)=O)C(=O)N[C@@H](Cc1c[nH]c2ccccc12)C(=O)N[C@@H](CC(C)C)C(=O)N[C@@H](CC(C)C)C(=O)N[C@@H](C)C(=O)NCC(=O)NCC(=O)N1CCC[C@H]1C(=O)N[C@@H](CO)C(=O)N[C@@H](CO)C(=O)NCC(=O)N[C@@H](C)C(=O)N1CCC[C@H]1C(=O)N1CCC[C@H]1C(=O)N1CCC[C@H]1C(=O)N[C@@H](CO)C(=O)N[C@@H](CCCCNC(=O)[C@@H](N)CCCCNC(=O)[C@@H](N)CCCCNC(=O)CC[C@H](NC(=O)CCCCCCCCCCCCCCCCC(=O)O)C(=O)O)C(N)=O)C(C)C [Compound 10] | 0.0021 nM | 0.259 nM | 0.0182 nM | 0.298 nM |
| CC[C@H](C)[C@H](NC(=O)[C@H](CO)NC(=O)[C@H](Cc1ccc(O)cc1)NC(=O)[C@H](CC(=O)O)NC(=O)[C@H](CO)NC(=O)[C@@H](NC(=O)[C@H](Cc1ccccc1)NC(=O)[C@@H](NC(=O)CNC(=O)[C@H](CCC(=O)O)NC(=O)C(C)(C)NC(=O)[C@@H](N)Cc1ccc(O)cc1)[C@@H](C)O)[C@@H](C)CC)C(=O)N[C@@H](Cc1ccc(O)cc1)C(=O)N[C@@H](CC(C)C)C(=O)N[C@@H](CC(=O)O)C(=O)N[C@@H](CCCCN)C(=O)N[C@@H](CCC(N)=O)C(=O)N[C@@H](C)C(=O)N[C@@H](C)C(=O)NC(C)(C)C(=O)N[C@@H](CCCCNC(=O)[C@@H](N)CCCCNC(=O)[C@@H](N)CCCCNC(=O)CC[C@H](NC(=O)CCCCCCCCCCCCCCCCC(=O)O)C(=O)O)C(=O)N[C@@H](Cc1ccccc1)C(=O)N[C@H](C(=O)N[C@@H](CC(N)=O)C(=O)N[C@@H](Cc1c[nH]c2ccccc12)C(=O)N[C@@H](CC(C)C)C(=O)N[C@@H](CC(C)C)C(=O)N[C@@H](C)C(=O)NCC(=O)NCC(=O)N1CCC[C@H]1C(=O)N[C@@H](CO)C(=O)N[C@@H](CO)C(=O)NCC(=O)N[C@@H](C)C(=O)N1CCC[C@H]1C(=O)N1CCC[C@H]1C(=O)N1CCC[C@H]1C(=O)N[C@@H](CO)C(N)=O)C(C)C [Compound 11] (H-Y[Aib]EGTFISDYSIYLDKQAA[Aib]K([εLys-εLys-γGlu-C18 diacid])FVNWLLAGGPSSGAPPPS-NH2; N-terminus assumed) | 0.281 nM | 0.0137 nM | 0.394 nM |  |
| CC[C@H](C)[C@H](NC(=O)[C@H](CO)NC(=O)[C@@H](NC(=O)[C@H](CC(=O)O)NC(=O)[C@H](CO)NC(=O)[C@@H](NC(=O)[C@H](Cc1ccccc1)NC(=O)[C@@H](NC(=O)CNC(=O)[C@H](CCC(=O)O)NC(=O)C(C)(C)NC(=O)[C@@H](N)Cc1c[nH]cn1)[C@@H](C)O)[C@@H](C)O)C(C)C)C(=O)N[C@@H](Cc1ccc(O)cc1)C(=O)N[C@@H](CC(C)C)C(=O)N[C@@H](CC(=O)O)C(=O)N[C@@H](CCCCN)C(=O)N[C@@H](CCC(N)=O)C(=O)N[C@@H](C)C(=O)N[C@@H](C)C(=O)NC(C)(C)C(=O)N[C@@H](CCCCNC(=O)[C@@H](N)CCCCNC(=O)[C@@H](N)CCCCNC(=O)CC[C@H](NC(=O)CCCCCCCCCCCCCCCCC(=O)O)C(=O)O)C(=O)N[C@@H](Cc1ccccc1)C(=O)N[C@H](C(=O)N[C@@H](CC(N)=O)C(=O)N[C@@H](Cc1c[nH]c2ccccc12)C(=O)N[C@@H](CC(C)C)C(=O)N[C@@H](CC(C)C)C(=O)N[C@@H](C)C(=O)NCC(=O)NCC(=O)N1CCC[C@H]1C(=O)N[C@@H](CO)C(=O)N[C@@H](CO)C(=O)NCC(=O)N[C@@H](C)C(=O)N1CCC[C@H]1C(=O)N1CCC[C@H]1C(=O)N1CCC[C@H]1C(=O)N[C@@H](CO)C(N)=O)C(C)C [Compound 12] (H-H[Aib]EGTFTSDVSIYLDKQAA[Aib]K([εLys-εLys-γGlu-C18 diacid])FVNWLLAGGPSSGAPPPS-NH2; N-terminus assumed) | 0.0022 nM | > 10 nM | 0.0029 nM |  |
| CC[C@H](C)[C@H](NC(=O)[C@H](CO)NC(=O)[C@H](Cc1ccc(O)cc1)NC(=O)[C@H](CC(=O)O)NC(=O)[C@H](CO)NC(=O)[C@@H](NC(=O)[C@H](Cc1ccccc1)NC(=O)[C@@H](NC(=O)CNC(=O)[C@H](CCC(=O)O)NC(=O)C(C)(C)NC(=O)[C@@H](N)Cc1ccc(O)cc1)[C@@H](C)O)[C@@H](C)O)C(=O)N[C@@H](Cc1ccc(O)cc1)C(=O)N[C@@H](CC(C)C)C(=O)N[C@@H](CCC(=O)O)C(=O)N[C@@H](CCCCN)C(=O)N[C@@H](CCC(N)=O)C(=O)N[C@@H](C)C(=O)N[C@@H](C)C(=O)NC(C)(C)C(=O)N[C@@H](CCCCNC(=O)[C@@H](N)CCCCNC(=O)[C@@H](N)CCCCNC(=O)CC[C@H](NC(=O)CCCCCCCCCCCCCCCCC(=O)O)C(=O)O)C(=O)N[C@@H](Cc1ccccc1)C(=O)N[C@H](C(=O)N[C@@H](CC(N)=O)C(=O)N[C@@H](Cc1c[nH]c2ccccc12)C(=O)N[C@@H](CC(C)C)C(=O)N[C@@H](CC(C)C)C(=O)N[C@@H](C)C(=O)NCC(=O)NCC(=O)N1CCC[C@H]1C(=O)N[C@@H](CO)C(=O)N[C@@H](CO)C(=O)NCC(=O)N[C@@H](C)C(=O)N1CCC[C@H]1C(=O)N1CCC[C@H]1C(=O)N1CCC[C@H]1C(=O)N[C@@H](CO)C(N)=O)C(C)C [Compound 15] (H-Y[Aib]EGTFTSDYSIYLEKQAA[Aib]K([εLys-εLys-γGlu-C18 diacid])FVNWLLAGGPSSGAPPPS-NH2; N-terminus assumed) | 0.0017 nM | 0.0273 nM | 0.0061 nM | 0.128 nM |

— US20230346961A1, “GLP-1 AND GIP RECEPTOR CO-AGONISTS” (Novo Nordisk A/S, priority 2020, published 2023)
